Common to all, as to format: in vivo
Experiment [1] deals with Rhyncosporium secalis. The experiment can be described thus: Barley Scald (RHYNSE) disease control. The conditions noted are these: 1 Day Protectant; for pest or weed control at 100 ppm: Hordeum vulgare, 24 h, read-out: Disease Control RHYNSE 1 DP. A digest of the protocol:
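Barley seedlings (Harrington) at first-leaf stage sprayed to run-off with compound in acetone/water (1:9) with 110 ppm Triton X-100, then inoculated with Rhyncosporium secalis spores 24 hr later. Kept 48 hr at 20° C, 100% humidity, then greenhouse at 20° C; disease severity (0–100%) scored, control calculated relative to untreated plants.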

In experiment [2] the test system is Cercospora beticola. In words: Leaf Spot of Sugar Beets (CERCBE) disease control. The conditions noted are these: 1 Day Protectant, sugar beet; for pest or weed control at 100 ppm: Cercospora beticola, topical, 24 h, read-out: Disease Control CERCBE 1 DP. Put shortly: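 Sugar beet plants (var. HH88) were sprayed to run-off with compound in acetone diluted with nine volumes of water containing 110 ppm Triton X-100. Spores were inoculated 24 hr later, then plants spent 48 hr in a dew chamber at 22° C and went to a 24° C greenhouse under a hood. Disease severity (0–100%) was scored and control expressed relative to untreated plants.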

The subject of experiment [3] is Phakopsora pachyrhizi. The experiment can be described thus: Asian Soybean Rust (PHAKPA) disease control. The conditions noted are these: for pest or weed control at 25 ppm: Phakopsora pachyrhizi, topical. Put shortly: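 Compounds in acetone diluted with nine volumes water containing 0.011% Tween 20, sprayed to run-off on two-week-old Williams 82 soybean seedlings, inoculated 3 days before or 1 day after treatment. Plants held 24 h in dark dew room at 22 °C, 100% RH, then at 23 °C; disease severity scored on sprayed leaves.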

In experiment [4] the test system is Uncinula necator. The experiment can be described thus: Grape Powdery Mildew (UNCINE) disease control. The conditions noted are these: 1 Day Protectant; for pest or weed control at 100 ppm: Erysiphe necator, topical, 24 h, read-out: Disease Control UNCINE 1 DP. Put shortly:
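Month-old Carignane grape seedlings were sprayed to run-off with compound in acetone diluted 1:9 in water containing 110 ppm Triton X-100, then inoculated 24 h later by shaking spores from infected leaves. Plants were held in a greenhouse at 20 °C until disease developed, and severity (0–100%) was scored with control calculated relative to untreated plants.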

In experiment [5] the test system is Magnaporthe grisea; Anamorph: Pyricularia oryzae. The experiment can be described thus: whole plant or invertebrate. The settings on record: for pest or weed control at 100 ppm: Pyricularia oryzae, topical, 24 h, read-out: Disease Control PYRIOR 1 DP.
Setting [6] is: 24 h, 1 Day Protectant, read-out: Disease Control PHAKPA 1DP.
Where [7] appears, read: 72 h, 3 Day Curative, read-out: Disease Control PHAKPA 3DC.

Structures are written as SMILES. Where two headings read alike, the source gives them in different places.

On to `COc1ccnc(C(=O)N[C@H]2CCC[C@H](Cc3ccc(F)cc3)[C@@H](OCC3CC3)[C@H](C)OC2=O)c1OCOC(C)=O` [Compound F98], for which the “Disease Control RHYNSE 1 DP” value in experiment [1] (100 ppm) was “A (80-100)”. Besides, the “Disease Control CERCBE 1 DP” value in experiment [2] (100 ppm) is listed as “A (80-100)”. Further, the “Disease Control PHAKPA 1DP” value in experiment [3] (25 ppm, 1 Day Protectant) is “A (80-100)”. Further, the “Disease Control PHAKPA 3DC” value in experiment [3] (25 ppm, 3 Day Curative) was “A (80-100)”. In addition, the “Disease Control UNCINE 1 DP” value in experiment [4] (100 ppm) is “A (80-100)”. Besides, the “Disease Control PYRIOR 1 DP” value in experiment [5] (100 ppm, 1 Day Protectant, Rice Blast) is recorded as “A (80-100)”.

In the case of `CCOCC(=O)OCOc1c(OC)ccnc1C(=O)N[C@H]1CCC[C@H](Cc2ccc(F)cc2)[C@@H](OCC2CC2)[C@H](C)OC1=O` [Compound F164], the pest or weed control at 100 ppm in experiment [1], in experiment [2], in experiment [4] and in experiment [5] was 80 to 100% throughout. The results for the pest or weed control at 25 ppm in experiment [3] (setting [6]) and in experiment [3] (setting [7]) were 80 to 100% and 0 to 80%, respectively.

On to `CCOCC(=O)OCOc1c(OC)ccnc1C(=O)N[C@H]1CCC[C@H](Cc2ccccc2)[C@@H](OCC(C)C)[C@H](C)OC1=O` [Compound F172], for which the pest or weed control at 100 ppm lay in the range of 80 to 100% in experiment [1], 80 to 100% in experiment [2], 0 to 80% in experiment [4] and 80 to 100% in experiment [5]. Also, the pest or weed control at 25 ppm in experiment [3] (setting [6]) is 80 to 100%; in experiment [3] (setting [7]) it was 0 to 80%.

For `CCCO[C@@H]1[C@@H](CCC(C)C)CCC[C@H](NC(=O)c2nccc(OC)c2OCOC(=O)COCC)C(=O)O[C@H]1C` [Compound F161], the pest or weed control at 100 ppm in experiment [1], in experiment [2], in experiment [4] and in experiment [5] was 80 to 100% in each case. The pest or weed control at 25 ppm in experiment [3] (setting [6]) and in experiment [3] (setting [7]) was 80 to 100% in each case.

Source of the values: patent publication US9265253B2, “Use of macrocyclic picolinamides as fungicides” (DOW AGROSCIENCES LLC, priority 2013, dated 2016).
